The test system of series [1] is KHYG-1 NK cell-mediated lysis of K562 cells. The series can be described thus: Inhibition of KHYG-1 NK cell-mediated lysis of K562 cells (51Cr release). Type of series: cell-based. The settings on record: K562 target cells, Effector:Target 2:1, 4 hours 37° C. A digest of the protocol: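 KHYG-1 NK effector cells in RPMI+0.1% BSA were preincubated with compounds up to 20 μM for 20 minutes at RT. ⁵¹Cr-labelled K562 targets were then added (E:T 2:1) for 4 hours at 37 °C, and ⁵¹Cr release gamma-counted as percent specific cytotoxicity, mean of triplicates ± SEM.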

The next series concerns KHYG-1 NK cells. The experiment in a line: Toxicity to KHYG-1 NK cells (trypan blue viability). The format is cell-based. The settings on record: viable cells as percentage of total (% viability), 18 to 24 hours.
Another series addresses recombinant perforin (UniProt P10820). The format is cell-based. The settings on record: read-out: Jurkat IC50; recombinant perforin pre-incubated 30 min with compound; 51Cr-labelled Jurkat cells, 0.1% BSA, 37° C. 4 hours. A digest of the protocol:
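Jurkat T lymphoma target cells labelled 1 h with 100 μCi ^51Cr, washed, resuspended at 1×10^5 cells/mL in RPMI with 0.1% BSA; lysis read as ^51Cr release into supernatant by gamma counting. Triplicate points; IC50 from the concentration range.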

recombinant perforin, sequence (P10820 whole entry): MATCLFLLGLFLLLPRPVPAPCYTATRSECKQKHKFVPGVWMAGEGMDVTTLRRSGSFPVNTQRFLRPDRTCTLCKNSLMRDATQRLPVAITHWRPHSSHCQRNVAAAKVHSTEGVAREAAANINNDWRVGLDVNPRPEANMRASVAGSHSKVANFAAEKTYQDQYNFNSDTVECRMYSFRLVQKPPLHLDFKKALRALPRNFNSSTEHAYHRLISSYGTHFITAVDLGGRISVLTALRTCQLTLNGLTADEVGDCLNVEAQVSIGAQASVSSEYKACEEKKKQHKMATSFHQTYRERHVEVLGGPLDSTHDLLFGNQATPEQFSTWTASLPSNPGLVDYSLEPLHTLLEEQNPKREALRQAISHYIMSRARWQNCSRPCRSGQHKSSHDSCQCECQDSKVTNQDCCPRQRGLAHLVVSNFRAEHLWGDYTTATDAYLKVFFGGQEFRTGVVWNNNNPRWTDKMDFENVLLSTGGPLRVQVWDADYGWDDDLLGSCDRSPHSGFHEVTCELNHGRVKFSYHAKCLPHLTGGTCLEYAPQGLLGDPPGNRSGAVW

`O=C1NC(=S)N/C1=C/c1ccc(-c2ccc(C(=O)NCCN3CCOCC3)cc2)s1` [Cmpd 45, (E,Z)-N-(2-Morpholinoethyl)-4-(5-((5-oxo-2-thioxoimidazolidin-4-ylidene)methyl)thiophen-2-yl)benzamide]: the melting point (commonly the temperature, or range, at which the solid turns liquid) is 248 to 252 °C. The inhibition – broadly, how much of the control response was suppressed – at 20 µM in series [1] is 78%. Moreover, the “percent viable KHYG-1 cells (trypan blue) at 20 μM” value (“percent viable KHYG-1 cells” below) in the series with KHYG-1 NK cells is listed as 88%. Further, the IC50 (in general, the concentration that gives 50% inhibition) at recombinant perforin is greater than 20 µM.
The corresponding values for `CN(C)CCCN1Cc2cc(-c3ccc(/C=C4/NC(=S)NC4=O)s3)ccc2C1=O` [Cmpd 74, (E)-2-(3-(Dimethylamino)propyl)-5-(5-((5-oxo-2-thioxoimidazolidin-4-ylidene)methyl)thiophen-2-yl)isoindolin-1-one] are 212 °C (dec.), 53%, 82% and greater than 20 µM.
For the compound `O=C1NC(=S)N/C1=C/c1cc2cc(-c3ccc4c(c3)COC4=O)ccc2[nH]1` [Cmpd 12, (E,Z)-5-((5-(1-Oxo-1,3-dihydroisobenzofuran-5-yl)-1H-indol-2-yl)methylene)-2-thioxoimidazolidin-4-one], the melting point was greater than 300 °C. Also, the inhibition at 20 µM in series [1] was found to be 74%. In addition, the “percent viable KHYG-1 cells” value in the series with KHYG-1 NK cells came to 94%. Besides, at recombinant perforin, the half-maximal inhibitory concentration (IC50) is 0.72 µM.
Consider `O=C1NC(=S)N/C1=C\c1ccc2ccc(-c3ccc4c(c3)COC4=O)cc2n1` [Cmpd 13], for which the melting point was greater than 310 °C. The compound further registered an inhibition at 20 µM in series [1] of 52%. The “percent viable KHYG-1 cells” value with KHYG-1 NK cells is recorded as 70%. In addition, the IC50 on recombinant perforin turned out to be 1.72 µM.
Consider `O=C1C/C(=C/c2ccc(-c3ccc4c(c3)COC4=O)s2)C(=O)N1` [Cmpd 36, (E,Z)-3-((5-(1-Oxo-1,3-dihydroisobenzofuran-5-yl)thiophen-2-yl)methylene)pyrrolidine-2,5-dione], for which the melting point is greater than 295 °C. This compound also returned an inhibition at 20 µM in series [1] of 51%. Moreover, the “percent viable KHYG-1 cells” value with KHYG-1 NK cells was found to be 65%.
Regarding `O=C1NC(=S)N/C1=C/c1cc2cc(-c3ccc4c(c3)COC4=O)ccc2s1` [Cmpd 79, (E,Z)-5-((5-(1-Oxo-1,3-dihydroisobenzofuran-5-yl)benzo[b]thiophen-2-yl)methylene)-2-thioxoimidazolidin-4-one], the melting point was greater than 305 °C. In addition, the inhibition at 20 µM in series [1] was determined as 59%. The “percent viable KHYG-1 cells” value in the series on KHYG-1 NK cells came to 72%.
The corresponding values for `O=C1NC(=S)N/C1=C/c1cnc(-c2ccc3c(c2)COC3=O)o1` [Cmpd 54, (E,Z)-5-((2-(1-Oxo-1,3-dihydroisobenzofuran-5-yl)oxazol-5-yl)methylene)-2-thioxoimidazolidin-4-one] are greater than 295 °C, 55% and 100%.
The compound `O=C1NC(=S)N/C1=C/c1cc2ccc(-c3ccc4c(c3)COC4=O)cc2s1` [Cmpd 80, (E,Z)-5-((6-(1-Oxo-1,3-dihydroisobenzofuran-5-yl)benzo[b]thiophen-2-yl)methylene)-2-thioxoimidazolidin-4-one] came in with a melting point greater than 310 °C. In series [1], this compound showed an inhibition at 20 µM of 55%. Further, the “percent viable KHYG-1 cells” value with KHYG-1 NK cells is listed as 75%. Besides, at recombinant perforin, the half-inhibitory concentration (IC50) was 0.36 µM.
`O=C1NC(=S)N/C1=C/c1ccc(-c2ccc3c(c2)COC3=O)o1` [Cmpd 1, (E,Z)-5-((5-(1-Oxo-1,3-dihydroisobenzofuran-5-yl)furan-2-yl)methylene)-2-thioxoimidazolidin-4-one] returned a melting point greater than 300 °C. In series [1], this compound registered an inhibition at 20 µM of 95%. The “percent viable KHYG-1 cells” value in the series on KHYG-1 NK cells is given as 66%.
On the same counts, the results for `O=C1NC(=S)N/C1=C\c1csnc1-c1ccc2c(c1)COC2=O` [Cmpd 59, (E,Z)-5-((3-(1-Oxo-1,3-dihydroisobenzofuran-5-yl)isothiazol-4-yl)methylene)-2-thioxoimidazolidin-4-one] are greater than 300 °C, 24% and 93%.
As to `O=C1NC(=S)N/C1=C\c1cnc(-c2ccc3c(c2)COC3=O)s1` [Cmpd 55, (E,Z)-5-((2-(1-Oxo-1,3-dihydroisobenzofuran-5-yl)thiazol-5-yl)methylene)-2-thioxoimidazolidin-4-one], the melting point was greater than 300 °C. In series [1], this compound came in with an inhibition at 20 µM of 53%. Moreover, the “percent viable KHYG-1 cells” value with KHYG-1 NK cells worked out at 95%. In addition, the half-inhibitory concentration (IC50) on recombinant perforin turned out to be 1.72 µM.
`O=C1NC(=S)N/C1=C/c1cc(-c2ccc3c(c2)COC3=O)cs1` [Cmpd 15, (E,Z)-5-((4-(1-Oxo-1,3-dihydroisobenzofuran-5-yl)thiophen-2-yl)methylene)-2-thioxoimidazolidin-4-one]: the melting point was greater than 300 °C. The same compound displayed an inhibition at 20 µM in series [1] of 67%. In the series with KHYG-1 NK cells, the “percent viable KHYG-1 cells” value is 96%.
On to `O=C1NC(=S)N/C1=C\c1ccc(-c2ccc3c(c2)COC3=O)cc1` [Cmpd 6, (E,Z)-5-(4-(1-Oxo-1,3-dihydroisobenzofuran-5-yl)benzylidene)-2-thioxoimidazolidin-4-one], for which the melting point is greater than 300 °C. In series [1], this compound gave an inhibition at 20 µM of 50%. In the series with KHYG-1 NK cells, the “percent viable KHYG-1 cells” value was 95%.
Consider `O=C1NC(=S)N/C1=C/c1cc2ccc(-c3ccc4c(c3)COC4=O)cc2[nH]1` [Cmpd 11, (E,Z)-5-((6-(1-Oxo-1,3-dihydroisobenzofuran-5-yl)-1H-indol-2-yl)methylene)-2-thioxoimidazolidin-4-one], for which the melting point is greater than 300 °C. In series [1], this compound had an inhibition at 20 µM of 100%. For the same compound, the “percent viable KHYG-1 cells” value with KHYG-1 NK cells was determined as 86%. The IC50 on recombinant perforin came out at 2.34 µM.
Turning to `O=C1NC(=S)N/C1=C\c1cccc(-c2ccc3c(c2)COC3=O)c1` [Cmpd 5, (E,Z)-5-(3-(1-Oxo-1,3-dihydroisobenzofuran-5-yl)benzylidene)-2-thioxoimidazolidin-4-one], the melting point fell in the range of 285 to 288 °C. The compound further showed an inhibition at 20 µM in series [1] of 64%. Besides, the “percent viable KHYG-1 cells” value in the series with KHYG-1 NK cells came to 97%.
Turning to `O=C1NC(=S)N/C1=C/c1cc2cc(-c3ccc4c(c3)COC4=O)ccc2o1` [Cmpd 10, (2)-5-((5-(1-Oxo-1,3-dihydroisobenzofuran-5-yl)benzofuran-2-yl)methylene)-2-thioxoimidazolidin-4-one], the melting point is greater than 300 °C. In series [1], this compound displayed an inhibition at 20 µM of 51%. In the series on KHYG-1 NK cells, the “percent viable KHYG-1 cells” value stood at 88%. Also, the IC50 at recombinant perforin came to 0.62 µM.
On the same counts, the results for `COc1ccc(-c2ccc(/C=C3/NC(=S)NC3=O)s2)cc1` [Cmpd 22, (E,Z)-5-((5-(4-Methoxyphenyl)thiophen-2-yl)methylene)-2-thioxoimidazolidin-4-one] are 288 to 293 °C, 78%, 100% and 8.93 µM.

The values are drawn from patent publication US20130065897A1, “COMPOUNDS, PREPARATION AND USES THEREOF” (PETER MACCALLUM CANCER INSTITUTE, priority 2009, published 2013).
